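Test compounds were applied to cells in 96-well plates for 48 hours at 5 doses. Abbreviation: GI50, concentration required for 50% inhibition of growth. TGI marks complete inhibition of growth.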
What was measured:
Assay in all cases: NCI anticancer screen, dose series, 48 h
HOP-92 NSCLC = system: HOP-92 NSCLC
HT29 colon = system: HT29 colon
NCI-H23 lung = system: NCI-H23 lung
NCI-H522 lung = system: NCI-H522 lung
SK-MEL-5 melanoma = system: SK-MEL-5 melanoma
SW-620 colon = system: SW-620 colon
U251 CNS = system: U251 CNS
M14 melanoma = system: M14 melanoma
SK-MEL-28 melanoma = system: SK-MEL-28 melanoma
UACC-257 melanoma = system: UACC-257 melanoma

SMILES | GI50 (HOP-92 NSCLC) [µM] | TGI (HOP-92 NSCLC) [µM] | GI50 (HT29 colon) [µM] | TGI (HT29 colon) [µM] | GI50 (NCI-H23 lung) [µM] | TGI (NCI-H23 lung) [µM] | GI50 (NCI-H522 lung) [µM] | TGI (NCI-H522 lung) [µM] | GI50 (SK-MEL-5 melanoma) [µM] | TGI (SK-MEL-5 melanoma) [µM] | GI50 (SW-620 colon) [µM] | TGI (SW-620 colon) [µM] | GI50 (U251 CNS) [µM] | TGI (U251 CNS) [µM] | TGI (M14 melanoma) [µM] | TGI (SK-MEL-28 melanoma) [µM] | TGI (UACC-257 melanoma) [µM] | GI50 (M14 melanoma) [µM] | GI50 (SK-MEL-28 melanoma) [µM] | GI50 (UACC-257 melanoma) [µM]
COc1cc2c3c(n(C4CCNCC4)c(=O)c2cc1OC)-c1cc2c(cc1C3=O)OCO2 | 2.45 | 28.3 | 0.264 | 2.33 | 0.538 | 2.39 | 0.296 | 2.99 | 0.322 | 1.46 | 0.225 | 1.95 | 0.279 | 2.01 | – | – | – | – | – | –
CC1(C)N=C(N)N=C(N)N1c1cccc(OCc2cccc([N+](=O)[O-])c2)c1 | – | > 100 | – | > 100 | – | > 100 | – | > 100 | – | > 88.7 | – | > 100 | – | 98.9 | > 100 | > 100 | 48.2 | – | – | –
Nc1nncs1 | – | 4660 | – | > 3390 | – | > 4730 | – | 4690 | – | > 5000 | – | > 5000 | – | > 5000 | > 5000 | > 5000 | > 4200 | – | – | –
O=C(O)C(Br)Cc1ccc2c(c1)OCO2 (stereo unspecified) | – | > 100 | – | > 100 | – | > 100 | – | > 100 | – | > 100 | – | > 100 | – | > 100 | > 100 | > 100 | > 100 | – | – | –
CSc1sc(=S)sc1SC | – | > 100 | – | > 100 | – | > 100 | – | > 100 | – | > 100 | – | > 100 | – | > 100 | – | > 100 | > 100 | – | – | –
COc1cc2c3c(c4cc(OC)c(OC)cc4c2cc1OC)[C@H](O)[C@@H]1CCCN1C3 | – | 2.32 | – | 1.53 | – | 1.93 | – | 1.55 | – | 1.11 | – | > 100 | – | 2.5 | 2.06 | > 100 | 1.15 | – | – | –
COc1ccc(/C=C/[N+](=O)[O-])cc1 | – | – | – | 11.2 | – | 59.9 | – | 43.4 | – | 30.2 | – | > 100 | – | 19.1 | 6.48 | 28.3 | 8.09 | – | – | –
O=C(O)CNCc1c2ccccc2[n+]([O-])c2ccccc12 | – | 78.1 | – | > 100 | – | > 100 | – | > 100 | – | > 100 | – | > 100 | – | > 100 | > 100 | > 100 | > 100 | – | – | –
COC(=O)c1nc2c3c(cccc3c1C(=O)OC)Nc1ccccc1-2 | – | 50.2 | – | > 100 | – | > 100 | – | 41.5 | – | 56.5 | – | > 100 | – | > 100 | > 100 | > 100 | > 100 | – | – | –
COc1ccc(/C(Cl)=C(\C=O)c2ccc(Cl)c(Cl)c2)cc1OC | – | 13.8 | – | 8.77 | – | – | – | 6.53 | – | 26.6 | – | 16.3 | – | 15 | 26.3 | 28 | – | – | – | –
C#C[C@@]1(O)[C@@H](CO)O[C@@H](n2cc(F)c3c(N)ncnc32)[C@@H]1O | – | – | 0.207 | > 100 | 0.398 | 6.85 | 0.18 | 0.929 | 0.267 | 1.33 | 0.159 | 2.9 | 0.631 | 11.6 | 2.39 | > 100 | 4.64 | 0.481 | 4.26 | 0.487
S=C1NN=C2C(=C3CCCC4C5CCCCC5N2C34)N1 (stereo unspecified) | – | > 100 | – | – | – | > 100 | – | > 100 | – | > 100 | – | > 100 | – | – | > 100 | > 100 | > 100 | – | – | –
C[C@H](CCC1=NCCN1)[C@H]1CC[C@H]2[C@@H]3CC[C@@H]4C[C@H](O)CC[C@]4(C)[C@H]3CC[C@]12C | – | 19.5 | – | 3.65 | – | 35 | – | 14.3 | – | 3.45 | – | > 48.9 | – | > 45.2 | > 22.6 | 4.86 | 6.6 | – | – | –
O=C(O)Cc1[nH]cnc1C(=O)O | – | > 100 | – | > 100 | – | > 100 | – | > 100 | – | > 100 | – | > 100 | – | > 100 | > 100 | > 100 | > 100 | – | – | –
